The results in this text go back to patent US20040097544A1, “Use of an inhibitor of the Na+/H+ exchanger for the production of a medicament for the treatment or prophylaxis of disturbances of the central nervous system” (Hoechst Marion Roussel Deutschland GMBH, priority 1997, published 2004).

This experiment has as its system CA3 neurons of the hippocampus. Briefly: Decrease in neuronal excitability on hippocampus slice preparations of CA3 neurons, intracellular leads. It is filed as cell-based, guinea-pigs. As for the experimental part: In the model of CA3 neurons in hippocampus tissue slices, NHE inhibitors with their antiepileptic and antipsychotic therapy potential inhibit epileptiform discharges. Hyperexcitability of neurons in the form of so-called epileptiform discharges was triggered by the action of bicuculline, caffeine or low magnesium concentrations. […] The decrease in neuronal excitability was tested on slice preparations of CA3 neurons of the hippocampus (guinea-pigs). The excitation-inhibiting action of cariporide (HOE 642) was investigated in 8 experiments. The neuronal excitability was assessed with intracellular leads with the aid of the spontaneous bioelectric activity and the pharmacologically produced epileptiform activity which had been induced by bicuculline, caffeine or absence of magnesium.

Molecules are shown by their SMILES.

As for `CC(C)c1ccc(C(=O)NC(=N)N)cc1S(C)(=O)=O` [cariporide], the “inhibition of the epileptiform discharges” value (CA3 neurons in hippocampus tissue slices, discharges triggered by bicuculline, caffeine or low magnesium concentrations) was “marked inhibition”. Also, the “duration of the reduction of spontaneous action potential and paroxysmal depolarization frequency” value (after wash-in of 0.1-0.5 mM cariporide) is listed as “more than 45 minutes”. Further, the “reduction of the frequency of the spontaneous action potentials” value (after wash-in of 0.1-0.5 mM cariporide, reversible, 8 experiments) is reported as 30-80%. Besides, the “reduction of the frequency of periodic paroxysmal depolarization” value (after wash-in of 0.1-0.5 mM cariporide, reversible, epileptiform activity induced by bicuculline, caffeine or absence of magnesium, 8 experiments) is 30-80%.
